Laboratory results as given in ChEMBL document CHEMBL3885881, “DrugMatrix”.

Organism: Rattus norvegicus
Test: DrugMatrix - Regimen: Daily Repeat
Format: toxicity, organism-based, Sprague-Dawley
Parameters: regimen Daily Repeat, gender Male, age 6-8 weeks
Details: in vivo, po, route oral GAVAGE, vehicle .5 % CMC; for ABSOLUTE BASOPHIL / ABSOLUTE EOSINOPHIL / ABSOLUTE LYMPHOCYTE / ABSOLUTE MONOCYTE / ABSOLUTE SEGMENTED NEUTROPHIL / BASOPHIL / EOSINOPHIL / ERYTHROCYTE COUNT / HEMATOCRIT / HEMOGLOBIN / LEUKOCYTE COUNT / LYMPHOCYTE / MEAN CORPUSCULAR HEMOGLOBIN / MEAN CORPUSCULAR HEMOGLOBIN CONCENTRATION / MEAN CORPUSCULAR VOLUME / MONOCYTE / NEUTROPHIL / NUCLEATED RED BLOOD CELLS / PLATELET COUNT: tissue Blood; for ALANINE AMINOTRANSFERASE / ALBUMIN / ALKALINE PHOSPHATASE / ASPARTATE AMINOTRANSFERASE / BLOOD UREA NITROGEN / CARBON DIOXIDE / CHLORIDE / CHOLESTEROL / CREATINE PHOSPHOKINASE / CREATININE / GLUCOSE / LACTATE DEHYDROGENASE / LIPASE / PHOSPHORUS / POTASSIUM / SODIUM / TOTAL BILIRUBIN / TOTAL PROTEIN / URIC ACID: tissue Plasma
[1] = 0 mg/kg, 72 h, dose level Control, time 3 day
[2] = 0 mg/kg, 120 h, dose level Control, time 5 day
[3] = 1 mg/kg, 72 h, dose level Low, time 3 day
[4] = 1 mg/kg, 120 h, dose level Low, time 5 day

OC(CCN1CCCCC1)(c1ccccc1)C1CCCCC1 (configuration not stated) [TRIHEXYPHENIDYL]
ABSOLUTE BASOPHIL [1]: 0 CELLS/uL | ABSOLUTE EOSINOPHIL [1]: 0 CELLS/uL | ABSOLUTE LYMPHOCYTE [1]: 10913.67 CELLS/uL | ABSOLUTE MONOCYTE [1]: 85.33 CELLS/uL | ABSOLUTE SEGMENTED NEUTROPHIL [1]: 1401 CELLS/uL | BASOPHIL [1]: 0% | EOSINOPHIL [1]: 0% | ERYTHROCYTE COUNT [1]: 5.57 x10E6/uL | HEMATOCRIT [1]: 35.58% | HEMOGLOBIN [1]: 13.8 G/DL | LEUKOCYTE COUNT [1]: 12.4 x10E3/uL | LYMPHOCYTE [1]: 88% | MEAN CORPUSCULAR HEMOGLOBIN [1]: 24.78 pg | MEAN CORPUSCULAR HEMOGLOBIN CONCENTRATION [1]: 38.82 G/DL | MEAN CORPUSCULAR VOLUME [1]: 63.88 fL | MONOCYTE [1]: 0.67% | NEUTROPHIL [1]: 11.33% | NUCLEATED RED BLOOD CELLS [1]: 0 /100WBC | PLATELET COUNT [1]: 1162.33 x10E3/uL | ALANINE AMINOTRANSFERASE [1]: 53 u/L | ALBUMIN [1]: 4.17 G/DL | ALKALINE PHOSPHATASE [1]: 374.5 u/L | ASPARTATE AMINOTRANSFERASE [1]: 89.5 u/L | BLOOD UREA NITROGEN [1]: 16.33 mg/dL | CARBON DIOXIDE [1]: 29.17 mmol/L | CHLORIDE [1]: 97.67 MEQ/L | CHOLESTEROL [1]: 77 mg/dL | CREATINE PHOSPHOKINASE [1]: 464.83 u/L | CREATININE [1]: 0.14 mg/dL | GLUCOSE [1]: 164 mg/dL | LACTATE DEHYDROGENASE [1]: 155.5 u/L | LIPASE [1]: 9.17 u/L | PHOSPHORUS [1]: 12.4 mg/dL | POTASSIUM [1]: 6.91 MEQ/L | SODIUM [1]: 141.47 MEQ/L | TOTAL BILIRUBIN [1]: 0.2 mg/dL | TOTAL PROTEIN [1]: 5.95 G/DL | URIC ACID [1]: 1.72 mg/dL | ABSOLUTE BASOPHIL [2]: 0 CELLS/uL | ABSOLUTE EOSINOPHIL [2]: 20.5 CELLS/uL | ABSOLUTE LYMPHOCYTE [2]: 13871.67 CELLS/uL | ABSOLUTE MONOCYTE [2]: 60.5 CELLS/uL | ABSOLUTE SEGMENTED NEUTROPHIL [2]: 980.67 CELLS/uL | BASOPHIL [2]: 0% | EOSINOPHIL [2]: 0.17% | ERYTHROCYTE COUNT [2]: 5.65 x10E6/uL | HEMATOCRIT [2]: 35.63% | HEMOGLOBIN [2]: 14.08 G/DL | LEUKOCYTE COUNT [2]: 14.93 x10E3/uL | LYMPHOCYTE [2]: 92.83% | MEAN CORPUSCULAR HEMOGLOBIN [2]: 24.97 pg | MEAN CORPUSCULAR HEMOGLOBIN CONCENTRATION [2]: 39.55 G/DL | MEAN CORPUSCULAR VOLUME [2]: 63.13 fL | MONOCYTE [2]: 0.33% | NEUTROPHIL [2]: 6.67% | NUCLEATED RED BLOOD CELLS [2]: 0 /100WBC | PLATELET COUNT [2]: 1248.17 x10E3/uL | ALANINE AMINOTRANSFERASE [2]: 45.17 u/L | ALBUMIN [2]: 4.27 G/DL | ALKALINE PHOSPHATASE [2]: 405.67 u/L | ASPARTATE AMINOTRANSFERASE [2]: 74.17 u/L | BLOOD UREA NITROGEN [2]: 15.5 mg/dL | CARBON DIOXIDE [2]: 30.17 mmol/L | CHLORIDE [2]: 100.67 MEQ/L | CHOLESTEROL [2]: 57 mg/dL | CREATINE PHOSPHOKINASE [2]: 239.5 u/L | CREATININE [2]: 0.17 mg/dL | GLUCOSE [2]: 165.67 mg/dL | LACTATE DEHYDROGENASE [2]: 90.5 u/L | LIPASE [2]: 8.83 u/L | PHOSPHORUS [2]: 12.32 mg/dL | POTASSIUM [2]: 7.03 MEQ/L | SODIUM [2]: 142.65 MEQ/L | TOTAL BILIRUBIN [2]: 0.18 mg/dL | TOTAL PROTEIN [2]: 6.03 G/DL | URIC ACID [2]: 1.98 mg/dL | ABSOLUTE BASOPHIL [3]: 0 CELLS/uL | ABSOLUTE EOSINOPHIL [3]: 0 CELLS/uL | ABSOLUTE LYMPHOCYTE [3]: 14884.67 CELLS/uL | ABSOLUTE MONOCYTE [3]: 0 CELLS/uL | ABSOLUTE SEGMENTED NEUTROPHIL [3]: 848.67 CELLS/uL | BASOPHIL [3]: 0% | EOSINOPHIL [3]: 0% | ERYTHROCYTE COUNT [3]: 5.35 x10E6/uL | HEMATOCRIT [3]: 35.77% | HEMOGLOBIN [3]: 14.27 G/DL | LEUKOCYTE COUNT [3]: 15.73 x10E3/uL | LYMPHOCYTE [3]: 94.33% | MEAN CORPUSCULAR HEMOGLOBIN [3]: 26.7 pg | MEAN CORPUSCULAR HEMOGLOBIN CONCENTRATION [3]: 39.87 G/DL | MEAN CORPUSCULAR VOLUME [3]: 66.97 fL | MONOCYTE [3]: 0% | NEUTROPHIL [3]: 5.67% | NUCLEATED RED BLOOD CELLS [3]: 0 /100WBC | PLATELET COUNT [3]: 1285.67 x10E3/uL | ALANINE AMINOTRANSFERASE [3]: 51.33 u/L | ALBUMIN [3]: 4.33 G/DL | ALKALINE PHOSPHATASE [3]: 449.67 u/L | ASPARTATE AMINOTRANSFERASE [3]: 84 u/L | BLOOD UREA NITROGEN [3]: 18.67 mg/dL | CARBON DIOXIDE [3]: 27.33 mmol/L | CHLORIDE [3]: 99.67 MEQ/L | CHOLESTEROL [3]: 76 mg/dL | CREATINE PHOSPHOKINASE [3]: 344.67 u/L | CREATININE [3]: 0.14 mg/dL | GLUCOSE [3]: 149.33 mg/dL | LACTATE DEHYDROGENASE [3]: 254.67 u/L | LIPASE [3]: 9.33 u/L | PHOSPHORUS [3]: 13.83 mg/dL | POTASSIUM [3]: 6.89 MEQ/L | SODIUM [3]: 145.2 MEQ/L | TOTAL BILIRUBIN [3]: 0.17 mg/dL | TOTAL PROTEIN [3]: 6.23 G/DL | URIC ACID [3]: 1.77 mg/dL | ABSOLUTE BASOPHIL [4]: 0 CELLS/uL | ABSOLUTE EOSINOPHIL [4]: 0 CELLS/uL | ABSOLUTE LYMPHOCYTE [4]: 16182.67 CELLS/uL | ABSOLUTE MONOCYTE [4]: 124 CELLS/uL | ABSOLUTE SEGMENTED NEUTROPHIL [4]: 1360 CELLS/uL | BASOPHIL [4]: 0% | EOSINOPHIL [4]: 0% | ERYTHROCYTE COUNT [4]: 5.66 x10E6/uL | HEMATOCRIT [4]: 35.77% | HEMOGLOBIN [4]: 14.3 G/DL | LEUKOCYTE COUNT [4]: 17.67 x10E3/uL | LYMPHOCYTE [4]: 91.67% | MEAN CORPUSCULAR HEMOGLOBIN [4]: 25.23 pg | MEAN CORPUSCULAR HEMOGLOBIN CONCENTRATION [4]: 40 G/DL | MEAN CORPUSCULAR VOLUME [4]: 63.13 fL | MONOCYTE [4]: 0.67% | NEUTROPHIL [4]: 7.67% | NUCLEATED RED BLOOD CELLS [4]: 0.33 /100WBC | PLATELET COUNT [4]: 1182.33 x10E3/uL | ALANINE AMINOTRANSFERASE [4]: 45.67 u/L | ALBUMIN [4]: 4.2 G/DL | ALKALINE PHOSPHATASE [4]: 394 u/L | ASPARTATE AMINOTRANSFERASE [4]: 78.67 u/L | BLOOD UREA NITROGEN [4]: 15.67 mg/dL | CARBON DIOXIDE [4]: 26.67 mmol/L | CHLORIDE [4]: 101 MEQ/L | CHOLESTEROL [4]: 73.33 mg/dL | CREATINE PHOSPHOKINASE [4]: 379.33 u/L | CREATININE [4]: 0.13 mg/dL | GLUCOSE [4]: 139.67 mg/dL | LACTATE DEHYDROGENASE [4]: 370.67 u/L | LIPASE [4]: 9 u/L | PHOSPHORUS [4]: 12.93 mg/dL | POTASSIUM [4]: 6.84 MEQ/L | SODIUM [4]: 143 MEQ/L | TOTAL BILIRUBIN [4]: 0.17 mg/dL | TOTAL PROTEIN [4]: 5.9 G/DL | URIC ACID [4]: 1.3 mg/dL
